# From US20250057813A1, “APOPTOSIS RELATED PROTEIN IN THE TGF-BETA SIGNALING PATHWAY (ARTS) MIMETIC COMPOUNDS, COMPOSITIONS, METHODS AND USES THEREOF IN INDUCTION OF APOPTOSIS” (Carmel-Haifa University Economic Corporation Ltd., priority 2022, published 2025)
# “Also recorded” adds a separate entry of the source.
# Tests used:
# [1] = system: MCF10AT1K (M2) cells; assay: TUNEL assay in M2 cells in 3D BME system; type: cell-based, Human; conditions: 40 μM, 24 h
# Experimental: Cells were harvested from their growth plates using 0.25% trypsin EDTA. Collected cells were cultured in Cultrex® growth factor reduced Basement Membrane Extract (BME: Trevigen, Inc) as follows: An 8 chamber glass slide system (Lab-TEK® II, Naperville, IL) was coated with 60 μl BME [Barkan D. et al., Cancer Research (2008)](protein concentration between […]; thickness-1-2 mm). 5×10^3 cells per well were re-suspended in DMEM/F12 supplemented with 2.5% DHS and 2% BME and cultured on the coated slides. Slides were incubated at 37° C., 5% CO2 incubator. Cells were re-fed every 4 days. Cell morphology was monitored by light microscopy. Immunofluorescence images were captured by Nikon Al—R confocal laser scanning microscope (Haifa University, Haifa, Israel).
# The cells were cultured as described above in 8 well chamber glass slides, fixed according to Barkan's immunofluorescence staining protocol and incubated for 1 hour with a mixture of TUNEL reaction mix according to the manufacturer's protocol (In Situ Cell death Detection Kit, TMR Red; Roche, Cat #12-156-792-910) covered with aluminum foil and placed in the 37° C., 5% CO2 incubator. Following incubation, slides were washed three times with PBS for 5 minutes each, and mounted with […] mounting medium with DAPI. DAPI stain was used to assess total cell number. […]
# [2] = biological target: T1, binding of XIAP to Bcl-2 (Homo sapiens, UniProt P10415+P98170); assay: BiFC assay in A375 melanoma cells (Bcl-2-VC and XIAP-VN); type: cell-based; conditions: 20 μM B3, 24 h
# T1 construct: expressed in transfected cells; host or cells: A375 melanoma cells
# Excerpt: The split-Venus BiFC system was used to evaluate close proximity indicating possible direct binding between pairs of proteins. The proteins were fused either to the N-terminal part of the Venus-YFP (yellow fluorescence protein) (VN) or the C-terminal part (VC). All Venus fragments were fused to the C-terminal sequences of these proteins. The Jun and Fos pair was used as a positive control (P.C.), and the Jun and FosdeltaZIP pair was used as a negative control (N.C.). A vector encoding dsRed was used as a transfection efficiency marker. Cells were seeded in 12 well plates overnight. Cells were then transfected with (Bcl-2-VC, ARTS-VN, XIAP-VN and XIAP-VC) for 24-36 hours. Cells were then treated with apoptotic inducing reagents for 24 hrs.
# [3] = system: MEF cells; assay: Western blot analysis of MEF cells (WT and XIAP KO); type: cell-based, mouse; conditions: 20 μM B3 for 2, 4, 6, 16 hours
# Experimental: Cells were lysed in whole-cell extract buffer [25 mM HEPES, pH 7.7, […], 1.5 mM MgCl2, 0.2 mM EDTA, 0.1% Triton X-100, 100 μg/ml phenylmethylsulfonyl fluoride (PMSF) and protease inhibitor cocktail (Roche, 1:100 dilution)] and placed on ice for 30 min (vortexing once after 15 min). After 30 minutes, the samples were centrifuged at 13,000×g for 10 minutes at 4° C. The supernatants containing total protein were measured for protein concentration using Bio-Rad Protein Assay Dye Reagent Concentrate Kit. 40 to […] was separated by sodium dodecyl sulfate-polyacrylamide gel electrophoresis (SDS-PAGE) (12% or 7.5%), followed by transfer to a nitrocellulose membrane. The membranes were blocked with 5% (w/v) non-fat dried skimmed milk powder in PBS supplemented with 0.05% Tween-20 (PBS-T) for 1 h at RT. Next, primary antibodies were added at 4° C. overnight or for 2 h at room temperature. Membranes were then incubated with secondary antibody for 1 h at RT and washed three times for 15 min each with PBS-T. Western Bright ECL (Advansta) was added to the membrane for 30-60 s and analyzed using Image Quant LAS-4000 (GE Healthcare Life Sciences) and Image Quant LAS-4000 software (GE Healthcare Life Sciences).
# [4] = system: SKMEL-5, A-375, UACC257, Hela wt, Mefs; assay: Western blot, B3 apoptotic effect on different cell lines; type: cell-based; conditions: 20 μM, 24 h
# Experimental: The cells were lysed in WCE (whole-cell extract) buffer [25 mM Hepes, pH 7.7, 0.3M NaCl, 1.5 mM MgCl2, 0.2 mM EDTA, 0.1% Triton X-100, 100[μg/ml PMSF and protease inhibitor cocktail (Roche, 1:100 dilution)]. 100 μg of total cell protein, measured with the Bio-Rad Protein Assay kit, were separated by SDS-PAGE (12%) followed by transfer for 2 h on to a nitrocellulose membrane. The membrane was blocked with 5% (w/v) non-fat dried skimmed milk powder in PBS supplemented with 0.05% Tween20 (PBS-T) for 1 hour at room temperature (R.T). Membrane was then probed with primary antibody at 4° C. overnight. Next, the membrane was incubated with the appropriate HRP-conjugated secondary antibody, for 1 hour at R.T. and washed 15 min ×3 with PBS-T. WesternBright ECL (Advansta) was added to the membrane for 2 min and analyzed using ImageQuant LAS-4000 analyzer (GE Healthcare Life Sciences) & “ImageQuant LAS-4000” software (GE Healthcare Life Sciences). Densitometry analysis was performed using ImageQuant total lab 7 (GE Healthcare Life Sciences), image analysis software.
# [5] = system: p53 Ubiquitylation in HCT 116 XIAP KO cells; assay: In vivo ubiquitylation assay of p53; type: cell-based; conditions: 20 μM B3, XIAP KO cells
# Experimental: (§1) All cells were transiently transfected with a Ub-HA (ubiquitin-tagged with HA) construct and treated with a proteasome inhibitor (Bortezomib or MG-132, at 20 μM for 6 h). after 1 h of proteasome inhibitor incubation, B3 (20 μM) or DMSO was added to the medium for an additional 5 h. After 6 h of Bortezomib/MG-132 along with 5 h of B3 treatments, the cells were harvested and lysed using RIPA buffer (Tris-HCl pH 7.5 50 mM, NaCl 150 mM, NP-40 (Igepal) 0.3%) containing protease inhibitor cocktail (Complete, Roche), 100 µg/ml PMSF, 5 mM N-ethylmaleimide, and 5 mM iodoacetamide to preserve ubiquitin chains. Following 15 min of centrifugation (10,000×g, 4° C.), the supernatant was transferred into a clean Eppendorf tube. A ubiquitination assay using immunoprecipitation with anti-p53 antibody (CS2524) (endogenous p53 was pulled down) was performed as described above with 1:500 antibody per 1000 μg protein. Poly-ubiquitylated forms of p53 were detected using an anti-p53 antibody (DO-1, sc-126).
# [6] = system: p53 Ubiquitylation in HCT 116 WT; assay: In vivo ubiquitylation assay of p53; type: cell-based; conditions: 20 μM B3, 5 h, with proteasome inhibitor
# Experimental: as §1
# T1 sequence (P98170 whole entry): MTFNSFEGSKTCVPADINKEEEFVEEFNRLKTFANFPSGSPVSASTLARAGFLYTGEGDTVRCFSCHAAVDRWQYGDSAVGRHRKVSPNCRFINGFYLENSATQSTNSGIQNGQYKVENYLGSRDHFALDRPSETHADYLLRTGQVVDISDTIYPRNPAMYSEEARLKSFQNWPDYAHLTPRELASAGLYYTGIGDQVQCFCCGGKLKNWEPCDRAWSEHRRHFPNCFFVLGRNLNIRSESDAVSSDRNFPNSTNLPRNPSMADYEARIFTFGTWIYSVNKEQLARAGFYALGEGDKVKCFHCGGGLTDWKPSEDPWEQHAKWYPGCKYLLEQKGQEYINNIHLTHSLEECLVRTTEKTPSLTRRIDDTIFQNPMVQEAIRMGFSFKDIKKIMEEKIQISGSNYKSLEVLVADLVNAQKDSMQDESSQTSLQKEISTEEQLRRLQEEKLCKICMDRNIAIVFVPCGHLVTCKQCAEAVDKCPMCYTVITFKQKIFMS
# T1 sequence (P10415 whole entry): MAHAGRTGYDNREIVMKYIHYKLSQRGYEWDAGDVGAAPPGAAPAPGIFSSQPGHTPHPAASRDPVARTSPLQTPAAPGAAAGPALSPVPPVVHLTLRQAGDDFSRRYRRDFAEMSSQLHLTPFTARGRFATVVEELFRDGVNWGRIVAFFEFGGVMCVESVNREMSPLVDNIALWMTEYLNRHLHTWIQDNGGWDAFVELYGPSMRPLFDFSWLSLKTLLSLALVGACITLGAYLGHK
smiles,measurement,setting,value
"Cn1ccnc1C(=O)c1ccc(NC(=O)C(=O)N[C@H](CO)Cc2ccccc2)cc1 [B3, (S)-N1-(1-hydroxy-3-phenylpropan-2-yl)-N2-(4-(1-methyl-1H-imidazole-2-carbonyl)phenyl)oxalamide]",number of cells positive for TUNEL staining,[1],significant increase
same,binding of XIAP to Bcl-2,[2],slightly increased; also recorded: increased
same,MDM2 levels,[3],reduction
same,XIAP levels,[3],reduction
same,cPARP or caspase3,[3],elevation
same,p53 levels,[3],elevation
same,cleavage of apoptotic markers Caspase3 and PARP,[4],induced cleavage
same,p53 Ubiquitylation levels,[5],no effect
same,Ubiquitylation of p53,[6],inhibit
